Target: Protein cereblon/Eukaryotic peptide chain release factor GTP-binding subunit ERF3A (Homo sapiens, UniProt P15170+Q96SW2)
Experiment: PROTAC activity at CRBN/GSPT1 in human U-937 cells assessed as degradation of GSPT1 measured after 6 hrs by Western blot analysis
Type: cell-based

Chain of Protein cereblon/Eukaryotic peptide chain release factor GTP-binding subunit ERF3A (Q96SW2 whole entry): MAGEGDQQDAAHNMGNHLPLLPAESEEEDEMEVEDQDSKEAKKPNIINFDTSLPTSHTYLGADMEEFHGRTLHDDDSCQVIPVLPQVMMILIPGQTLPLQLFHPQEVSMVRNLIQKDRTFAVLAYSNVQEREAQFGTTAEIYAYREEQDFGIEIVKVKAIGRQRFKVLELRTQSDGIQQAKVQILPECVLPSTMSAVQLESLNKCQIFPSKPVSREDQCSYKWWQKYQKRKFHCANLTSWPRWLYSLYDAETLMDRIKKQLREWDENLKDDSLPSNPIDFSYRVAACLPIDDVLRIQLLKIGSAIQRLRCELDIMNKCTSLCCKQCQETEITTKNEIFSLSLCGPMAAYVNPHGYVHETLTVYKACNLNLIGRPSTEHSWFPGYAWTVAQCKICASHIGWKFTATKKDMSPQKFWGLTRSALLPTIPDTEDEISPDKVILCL
Chain of Protein cereblon/Eukaryotic peptide chain release factor GTP-binding subunit ERF3A (P15170 whole entry): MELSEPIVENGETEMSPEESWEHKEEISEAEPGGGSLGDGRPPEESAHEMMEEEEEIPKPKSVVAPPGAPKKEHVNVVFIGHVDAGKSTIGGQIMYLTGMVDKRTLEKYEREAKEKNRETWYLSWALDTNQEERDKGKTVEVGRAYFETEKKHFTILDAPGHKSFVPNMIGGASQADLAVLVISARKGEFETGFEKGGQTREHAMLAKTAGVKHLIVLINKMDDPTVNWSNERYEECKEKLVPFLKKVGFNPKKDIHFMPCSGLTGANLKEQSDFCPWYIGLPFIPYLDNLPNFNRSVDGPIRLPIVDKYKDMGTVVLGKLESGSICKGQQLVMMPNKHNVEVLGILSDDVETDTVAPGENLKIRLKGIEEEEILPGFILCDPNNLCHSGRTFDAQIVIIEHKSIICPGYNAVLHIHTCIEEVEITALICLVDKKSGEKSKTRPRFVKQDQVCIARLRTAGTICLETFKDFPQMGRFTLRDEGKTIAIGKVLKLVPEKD

EC50: 208 nM
Compound: Cc1c(Cl)cc(NC(=O)CCc2ccc3c(c2)C(=O)N(C2CCC(=O)NC2=O)C3)cc1CN1CC(N2CCOCC2)C1 (stereo unspecified)
